# From patent US20190125745A1, “TREATMENT AND DIAGNOSIS OF CANCER” (Rgenix, Inc., priority 2014, published 2019)
# Where a name gives a salt, the structure may show the parent alone.
# Experiments:
# [1] = system: SK-Mel-239 vemurafenib-resistant clone cells; conditions: diet 100 mg/kg
# LXRβ = target: T1, LXRβ (Homo sapiens, UniProt P55055); experiment: ligand sensing assay (LiSA), LXRβ; assay type: biochemical; conditions: hydrochloride
# T1 sequence (P55055 1-460): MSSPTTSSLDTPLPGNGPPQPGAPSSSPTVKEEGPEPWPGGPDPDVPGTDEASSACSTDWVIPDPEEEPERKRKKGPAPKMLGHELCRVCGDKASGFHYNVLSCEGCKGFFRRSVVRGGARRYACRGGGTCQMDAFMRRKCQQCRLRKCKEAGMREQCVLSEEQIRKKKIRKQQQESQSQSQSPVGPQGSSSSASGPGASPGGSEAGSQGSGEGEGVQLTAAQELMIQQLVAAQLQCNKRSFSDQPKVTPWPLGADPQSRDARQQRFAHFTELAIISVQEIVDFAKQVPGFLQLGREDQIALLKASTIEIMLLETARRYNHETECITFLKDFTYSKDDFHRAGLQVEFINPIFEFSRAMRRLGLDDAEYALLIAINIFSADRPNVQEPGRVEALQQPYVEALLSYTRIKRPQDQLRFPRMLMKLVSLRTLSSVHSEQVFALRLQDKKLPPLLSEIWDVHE
# Description: As used herein, reference to the activity of an LXR agonist at LXRα and LXRβ refer to the activity as measured using the ligand sensing assay (LiSA) described in Spencer et al. Journal of Medicinal Chemistry 2001, 44, 886-897, incorporated herein by reference. […] For example, the methods of the invention can be performed using an LXRβ agonist having activity for LXRβ that is at least 3-fold greater than the activity of the agonist for LXRα, or having activity for LXRβ that is at least 10-fold greater than the activity of the agonist for LXRα, or having activity for LXRβ that is at least 100-fold greater than the activity of said agonist for LXRα, or having activity for LXRβ that is at least within 3-fold of the activity of the agonist for LXRα. The term “greater activity” in the LiSA assay refers to a lower EC50.
# [2] = system: B16F10 mouse melanoma cells; experiment: B16F10 tumor growth and metastasis with LXR or ApoE knockdown or knockout; assay type: in vivo
# Protocol: FIG. 12. Therapeutic Delivery of LXR Agonists Upregulates Melanoma-Derived and Systemic ApoE Expression. (A-B) ApoE expression levels, quantified by qRT-PCR, in subcutaneous tumors formed by B16F10 mouse melanoma cells injected into C57BL/6 mice. After 5-mm^3 tumor formation, mice were fed a control diet or diet containing GW3965 (20 mg/kg) (A) or T0901317 (20 mg/kg) (B) for 7 days. n=3-4. (C-E) ApoEtranscript expression in primary tumors (C), lung metastases (D), and brain metastases (E) formed by MeWo human melanoma cells grafted onto NOD Scid mice that were administered control chow or chow supplemented with GW3965 (20 mg/kg). ApoE levels were assessed on day 35 (C), day 153 (D), and day 34 (E) post-injection of the cancer cells. n=3-5. (F) Relative expression levels of LXRα, LXRβ, and ApoE were determined by qRT-PCR in B16F10 mouse melanoma cells expressing a control hairpin or an shRNA targeting mouse LXRα (sh_mLXRα), mouse LXRβ (sh_mLXRβ), or mouse ApoE (sh_mApoE). (G-H) ApoE (G) and ABCA1(H) mRNA levels, measured by qRT-PCR, in B16F10 cells expressing a control shRNA or shRNAs targeting mouse LXRβ or mouse ApoE. The cells were treated with DMSO or GW3965 at 5 μM for 48 hours. n=3. (I) ABCA1 mRNA levels, measured by qRT-PCR, in systemic white blood cells extracted from LXRα −/− or LXRβ −/− mice fed a control diet or a GW3965-supplemented diet (20 mg/kg) for 10 days. n=3-4. (J) Relative expression of ApoE mRNA, expressed as the frequency of SAGE tags, in mouse skin and lung tissues was determined using the public mSAGE Expression Matrix database available through the NCI-funded Cancer Genome Anatomy Project (CGAP). (K) Relative expression of ApoE mRNA, determined by qRT-PCR, in MeWo melanoma cells dissociated from lung metastatic nodules (LM2) or primary tumors relative to control unselected MeWo parental cells. n=3.
# FIG. 13. LXRβ Agonism Suppresses Melanoma Tumor Growth and Metastasis by Inducing Melanoma-Derived and Systemic ApoE Expression. […] (B) Quantification of ApoE protein expression based on western blots shown in (A). […] Representative tumor images extracted at the end point are shown in the right panel. n=6-18. (E) ApoE transcript levels, quantified by qRT-PCR, in systemic white blood cells extracted from LXRα −/− or LXRβ −/− mice fed a control diet or a GW3965-supplemented diet (20 mg/kg) for 10 days. n=3-5. (F) Subcutaneous tumor growth by 5×10^4 B16F10 control cells or B16F10 cells expressing an shRNA targeting mouse ApoE (sh_mApoE) in C57BL/6-WT or ApoE−/− mice. […] Representative images of tumors extracted at the final day of measurement (d12) are shown on the right. n=8-18. (G) Lung colonization by 5×10^4 B16F10 cells transduced with a control shRNA or sh_mApoE and intravenously injected into C57BL/6-WT or ApoE−/− mice. […] Lung metastasis was quantified on d22 by bioluminescence imaging. Representative lungs extracted at the end point (d22) are shown in the right panel. n=5-10. (H) ApoE protein expression, determined by blinded immunohistochemical analysis, in non-metastatic (n=39) and metastatic (n=34) primary melanoma skin lesion samples obtained from patients at MSKCC. The fraction of ApoE-positively staining cell area was quantified as a percentage of total tumor area.
structure (smiles),measurement,setting,value
"O=C(O)Cc1cccc(OCCCN(Cc2cccc(C(F)(F)F)c2Cl)CC(c2ccccc2)c2ccccc2)c1 [GW3965 108, 3-[3-[N-(2-Chloro-3-trifluoromethylbenzyl)-(2,2-diphenylethyl)amino]propyloxy] phenylacetic acid hydrochloride]",suppression of growth of the SK-Mel-239 vemurafenib-resistant line,[1],72%
same,greater activity for LXRβ compared to LXRα,LXRβ,6 fold
same,greater activity for LXRβ compared to LXRα,LXRβ; row,approximately 6 fold
same,metastasis suppression upon genetic inactivation of ApoE,"[2]; ApoE−/− mice, diet 20 mg/kg",only partially prevented
same,suppressing tumor growth in mice genetically inactivated for ApoE,"[2]; ApoE−/− mice, diet 20 mg/kg",completely ineffective
same,induction of ApoE expression upon knockdown of mouse melanoma-cell LXRβ,"[2]; B16F10 cells, 5 μM, 48 hours",abrogated
same,inhibition of metastasis with both melanoma-cell ApoE knockdown and genetic inactivation of systemic ApoE,[2]; diet 20 mg/kg,completely blocked
same,suppression of tumor growth with melanoma-cell LXRβ knockdown,"[2]; diet 20 mg/kg, 7 days",unable to prevent
same,tumor growth inhibition upon depletion of melanoma-cell ApoE,"[2]; diet 20 mg/kg, 7 days",did not prevent
same,metastasis-suppressive effect upon knockdown of melanoma-cell ApoE,"[2]; lung colonization, diet 20 mg/kg",partially prevented
same,upregulation of systemic ApoE expression in LXR null mice,"[2]; white blood cells, diet 20 mg/kg, 10 days","abrogated in LXRβ −/−, but not in LXRα −/− mice"
